Results published in patent publication US20080027088A1, “Imidazole-Based Hmg-Coa Reductase Inhibitors” (Warner-Lambert Company, LLC, priority 2004, published 2008).
Marks after values point to notes of the source that are not given here.

Assays:
[1] = test system: ApoE KO mice fed a Western diet; assay: Sphingomyelin in liver, plasma and aorta by LC/MS, 12 weeks; format: in vivo; settings: 0.3 mg/kg/day
Description: Analysis of Sphingolipids and Phospholipids by LC/MS and HPLC-Total lipids were extracted by the modified method of Bligh-Dyer extraction (E. G. Bligh and W. J. Dyer, Can. J. Med. Sci. 1959;37:911-917; and D. K. Perry, A. Bielawska and Y. A. Hannun, Methods Enzymol. 2000;312:22-31). A Micromass (Waters Corp., Milford, Mass.) Quattro Ultima tandem quadrupole mass spectrometer with a standard Z-sprayTM ion source, set to electrospray positive ionization mode, with MassLynxTM version 3.5 operating software, was used for all quantitative determinations. Source conditions were typically as follows: capillary 3.5 kV, source temperature 110 degrees C., and desolvation temperature 325 degrees C. Multipliers were set to 650 V, and the dwell time for each analyte was 100 milliseconds. Precursor-to-product ion transitions were established through direct infusion of each compound into the mass spectrometer. The following ion transitions were used for quantification: sphingomyelin (704→184 m/z), sphinganine (302→284 m/z), ceramide (566→264 m/z) and psychosine (462→282 m/z) as an internal standard. For the instrument, at a collision cell pressure of 2×10^-3 mbar argon, cone and collision voltages were as follows: sphingomyelin (45V, 25 eV), sphinganine (45V, 15 eV), ceramide (45V, 25 eV) and psychosine (45V, 25 eV). The liquid chromatography system was composed of twin Shimadzu (Columbia, Md.) LC-10ADvp HPLC pumps with a SCL-10Avp controller (flow rate 0.2 mL/minute), and a LEAP Technologies (Carrboro, N.C.) CTC PAL autosampler. For the quantitative method, the analytical column was a Phenomenex (Torrance, Calif.) Polar-RP (2.0×150 mm, 4 μm) with a […] (Torrance, Calif.) MetaGuard Polaris C8 2.0 mm direct connect (5 μm) guard column. […] Lipid extracts were analyzed by HPLC and evaporative light scattering detector to determine plasma sphingomyelin and phosphatidylcholine (PC) levels (R. Homan and M.K. Anderson, J. Chromatogr. B. Biomed. Sci. Appl. 1998;708:21-6). […] Sphingomyelin levels in liver (A), plasma (B), and aorta (C) were determined by LC/MS. […]

ApoE knockout mice = assay: Plasma sphingomyelin and phosphatidylcholine by HPLC, 4 weeks (Table 2); format: in vivo; settings: for PC in plasma / SM in plasma / SM; PC molar ratio: diet admix 4 weeks, n = 10
Method: Animal experiments—Male C57BI/6J and ApoE KO mice on C57BI/6J background were obtained from the Jackson Laboratory (Bar Harbor, Me.) or Taconic (Germantown, N.Y.) (Plaque formation in ApoE KO mice is lipid-driven (A. S. Plump et al., Cell. 1992;71 (2):343-53)). Myriocin was mixed with Western diet containing 0.21% cholesterol and 21% fat. 8-12-week-old mice received 0.3 mg myriocin/kg/day for 12 weeks (Table 1). […] Control groups consisted of ApoE KO mice fed normal chow or Western diet without myriocin, and normal chow-fed C57BI/6J mice. Body weight and chow feeding was measured every week to examine the food consumption. For the femoral artery cuff model, 8-10 week-old male ApoE KO mice were anethetized and the right femoral artery was dissected from its surroundings. A nonconstrictive polyethylene cuff (Portex, 0.40-mm inner diameter, 0.80-mm outer diameter, and 1.5-mm length) was placed looselyaround the right femoral artery.
The liquid chromatography system was composed of twin Shimadzu (Columbia, Md.) LC-10ADvp HPLC pumps with a SCL-10Avp controller (flow rate 0.2 mL/minute), and a LEAP Technologies (Carrboro, N.C.) CTC PAL autosampler. For the quantitative method, the analytical column was a Phenomenex (Torrance, Calif.) Polar-RP (2.0×150 mm, 4 μm) with a MetaChem (Torrance, Calif.) MetaGuard Polaris C8 2.0 mm direct connect (5 μm) guard column. Mobile phase A consisted of water/acetonitrile/formic acid (60/40/0.1) and mobile phase B was propanol. The HPLC pumps were programmed with a gradient for each injection to deliver 98% mobile phase A (0-1 minute), 30% mobile phase A (1-2 minutes), 30% mobile phase A (2-4 minutes), and 98% mobile phase A (4-4.5 minutes). A sample volume of 2 μL was injected into the LC/MS/MS system. Final chromatographic retention times for sphingomyelin, sphinganine, psychosine (internal standard) and ceramide were 4.84 minutes, 5.43 minutes, 4.92 minutes and 5.31 , minutes, respectively. Lipid extracts were analyzed by HPLC and evaporative light scattering detector to determine plasma sphingomyelin and phosphatidylcholine (PC) levels (R. Homan and M.K. Anderson, J. Chromatogr. B. Biomed. Sci. Appl. 1998;708:21-6).
To investigate whether myriocin was effective in lowering sphingomyelin biosynthesis, various concentrations of myriocin were administered to ApoE KO mice for 4 weeks and plasma SM levels were examined. […] At the highest dose of myriocin (1 mg/kg/day), plasma sphingomyelin levels were reduced by 70% when compared with no-myriocin control. Thus, myriocin in a diet admix was effective in inhibiting sphingomyelin biosynthesis and lowering plasma sphingomyelin levels. Since SM levels relative to phospholipids has been regarded as a risk factor for coronary artery disease, plasma PC levels were determined by HPLC analysis. Although there were significant changes in plasma SM levels, plasma PC levels were not changed to the same extent by myriocin. Consequently, SM/PC molar ratio was lowered by myriocin in a dose-dependent manner (Table 2).

CCCCCCC(=O)CCCCCC/C=C/C[C@@H](O)[C@H](O)[C@@](N)(CO)C(=O)O [myriocin]
aorta SM levels decreased [1]: 20% | plasma SM lowered ([1]; Western diet-fed ApoE KO mice): 64% | SM accumulation in liver ([1]; vs Western diet-fed ApoE KO mice): lowered | plasma sphingomyelin levels reduced (HPLC) (ApoE knockout mice; 1 mg/kg/day, 4 weeks, vs no-myriocin control): 70% | PC in plasma (ApoE knockout mice; WD + 0.1 mg myr): 2.763 ± 0.195 nmol/mL | SM in plasma (ApoE knockout mice; WD + 0.1 mg myr): 0.379 ± 0.035 nmol/mL | SM; PC molar ratio (ApoE knockout mice; WD + 0.1 mg myr): 0.137 ± 0.005^b | PC in plasma (ApoE knockout mice; WD + 0.3 mg myr): 1.999 ± 0.085 nmol/mL | SM in plasma (ApoE knockout mice; WD + 0.3 mg myr): 0.243 ± 0.032 nmol/mL | SM; PC molar ratio (ApoE knockout mice; WD + 0.3 mg myr): 0.122 ± 0.013^b | PC in plasma (ApoE knockout mice; WD + 1 mg myr): 2.044 ± 0.146 nmol/mL | SM in plasma (ApoE knockout mice; WD + 1 mg myr): 0.175 ± 0.013 nmol/mL | SM; PC molar ratio (ApoE knockout mice; WD + 1 mg myr): 0.086 ± 0.008^b
